# According to patent publication US7994140B2, “Classes of compounds that interact with GPCRs” (Alchemia Limited, priority 2002, dated 2011):
# Target: T1, MC4 (Homo sapiens, UniProt P32245)
# T1 construct: purchased Perkin Elmer BioSignal; host or cells: HEK 293
# Experiment: GPCR radioligand binding (RLB) assay, melanocortin MC4, [125I]NDP-αMSH
# Settings: 4.0 Micromolar; Example Library 11
# How it was run: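 Competition binding against radioligand ([125I]NDP-αMSH for MC4, [125I]SST-14 for SST5) on membranes of HEK 293 cells carrying the human receptor; buffer and incubation time optimized per receptor. Filtration through 0.5% PEI-treated glass fiber, washing, then scintillation counting.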
# T1 sequence (P32245 whole entry): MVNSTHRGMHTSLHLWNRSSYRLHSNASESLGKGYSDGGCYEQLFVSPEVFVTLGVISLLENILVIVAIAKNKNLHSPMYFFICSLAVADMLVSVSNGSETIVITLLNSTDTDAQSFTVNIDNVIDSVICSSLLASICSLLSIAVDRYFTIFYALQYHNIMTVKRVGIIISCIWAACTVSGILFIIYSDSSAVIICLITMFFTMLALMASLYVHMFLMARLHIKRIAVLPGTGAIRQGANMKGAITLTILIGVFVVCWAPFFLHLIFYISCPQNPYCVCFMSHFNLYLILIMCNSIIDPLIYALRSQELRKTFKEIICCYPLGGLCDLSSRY
row,SMILES,MC4 Inhibition at 4.0 Micromolar
1,NCCCC(=O)NC1C(OCc2ccccc2)OC(COCc2ccc3ccccc3c2)C(O)C1OCc1ccc(Cl)cc1 (centres unmarked) [Compound 406],+ (Indicates inhibition greater than . . . 50%)
2,NCCCC(=O)NC1C(OCc2ccccc2)OC(COCc2ccc(Cl)cc2)C(O)C1OCc1ccc(Cl)cc1 (centres unmarked) [Compound 407],+ (Indicates inhibition greater than . . . 50%)
3,NCCCC(=O)NC1C(OCc2ccccc2)OC(COCc2ccc3ccccc3c2)C(O)C1OCc1ccc2ccccc2c1 (centres unmarked) [Compound 408],+ (Indicates inhibition greater than . . . 50%)
4,NCCCC(=O)NC1C(OCc2ccccc2)OC(COCc2ccccc2)C(O)C1OCc1ccc2ccccc2c1 (centres unmarked) [Compound 409],+ (Indicates inhibition greater than . . . 50%)
5,NCCCC(=O)NC1C(OCc2ccccc2)OC(COCc2ccc(Cl)cc2)C(O)C1OCc1ccc2ccccc2c1 (centres unmarked) [Compound 410],+ (Indicates inhibition greater than . . . 50%)
6,NCCCC(=O)NC1C(OCc2ccccc2)OC(COCc2ccc3ccccc3c2)C(O)C1OCc1ccccc1 (centres unmarked) [Compound 411],+ (Indicates inhibition greater than . . . 50%)
7,NCCCC(=O)NC1C(OCc2ccccc2)OC(COCc2ccc(Cl)cc2)C(O)C1OCc1ccccc1 (centres unmarked) [Compound 412],+ (Indicates inhibition greater than . . . 50%)
8,NCCC(=O)NC1C(OCc2ccc3ccccc3c2)OC(COCc2ccc3ccccc3c2)C(O)C1OCc1ccc(Cl)cc1 (centres unmarked) [Compound 413],+ (Indicates inhibition greater than . . . 50%)
9,NCCC(=O)NC1C(OCc2ccc3ccccc3c2)OC(COCc2ccccc2)C(O)C1OCc1ccc(Cl)cc1 (centres unmarked) [Compound 414],+ (Indicates inhibition greater than . . . 50%)
10,NCCC(=O)NC1C(OCc2ccc3ccccc3c2)OC(COCc2ccc(Cl)cc2)C(O)C1OCc1ccc(Cl)cc1 (centres unmarked) [Compound 415],+ (Indicates inhibition greater than . . . 50%)
11,NCCC(=O)NC1C(OCc2ccc3ccccc3c2)OC(COCc2ccc3ccccc3c2)C(O)C1OCc1ccc2ccccc2c1 (centres unmarked) [Compound 416],+ (Indicates inhibition greater than . . . 50%)
12,NCCC(=O)NC1C(OCc2ccc3ccccc3c2)OC(COCc2ccccc2)C(O)C1OCc1ccc2ccccc2c1 (centres unmarked) [Compound 417],+ (Indicates inhibition greater than . . . 50%)
13,NCCC(=O)NC1C(OCc2ccc3ccccc3c2)OC(COCc2ccc(Cl)cc2)C(O)C1OCc1ccc2ccccc2c1 (centres unmarked) [Compound 418],+ (Indicates inhibition greater than . . . 50%)
14,NCCC(=O)NC1C(OCc2ccc3ccccc3c2)OC(COCc2ccc3ccccc3c2)C(O)C1OCc1ccccc1 (centres unmarked) [Compound 419],+ (Indicates inhibition greater than . . . 50%)
15,NCCC(=O)NC1C(OCc2ccc3ccccc3c2)OC(COCc2ccccc2)C(O)C1OCc1ccccc1 (centres unmarked) [Compound 420],+ (Indicates inhibition greater than . . . 50%)
16,NCCC(=O)NC1C(OCc2ccc3ccccc3c2)OC(COCc2ccc(Cl)cc2)C(O)C1OCc1ccccc1 (centres unmarked) [Compound 421],+ (Indicates inhibition greater than . . . 50%)
17,NCCCC(=O)NC1C(OCc2ccc3ccccc3c2)OC(COCc2ccc3ccccc3c2)C(O)C1OCc1ccc(Cl)cc1 (centres unmarked) [Compound 422],+ (Indicates inhibition greater than . . . 50%)
18,NCCCC(=O)NC1C(OCc2ccc3ccccc3c2)OC(COCc2ccccc2)C(O)C1OCc1ccc(Cl)cc1 (centres unmarked) [Compound 423],+ (Indicates inhibition greater than . . . 50%)
19,NCCCC(=O)NC1C(OCc2ccc3ccccc3c2)OC(COCc2ccc(Cl)cc2)C(O)C1OCc1ccc(Cl)cc1 (centres unmarked) [Compound 424],+ (Indicates inhibition greater than . . . 50%)
20,NCCCC(=O)NC1C(OCc2ccc3ccccc3c2)OC(COCc2ccc3ccccc3c2)C(O)C1OCc1ccc2ccccc2c1 (centres unmarked) [Compound 425],+ (Indicates inhibition greater than . . . 50%)
